The record followed here is patent US20220073496A1, “NOVEL QUINOLINE DERIVATIVE INHIBITOR” (Nanjing Transthera Biosciences Co., Ltd., priority 2018, published 2022).

Series [1] in a line: Stability in liver microsome of mice. It is filed as in vitro ADME. The note with it: Mouse liver microsome 0.5 mg protein/mL, compound 1 μM, 37° C.; for half-life at 1 μM / microsomal CLint at 1 μM: liver microsomes. The method, then: (§1) Assay 1: Stability assessment of the compounds of the present invention in liver microsome of mice and dogs
(§2) Test substances: the compounds of the present invention, wherein the structures and preparations thereof were as described above.
(§3) The composition of the incubation system:
(§4) Preparation of Test Substances:
(§5) An appropriate amount of the compound was accurately weighed and dissolved in DMSO to prepare a 5.0 mM stock solution. The 5.0 mM stock solution was diluted to 1.0 mM with DMSO, and finally diluted with water to a 10 μM test substance working solution for use (the DMSO content in the reaction system was 0.1%).
(§6) (1) The liver microsome (20 mg protein/mL) was taken out from the −80° C. refrigerator, pre-incubated at 37° C. with a water-bathing constant temperature vibrator for 3 minutes, and melted for use.
(§7) (2) A mixed solution of the incubation system (excluding compounds and β-NADPH) according to the above “composition of the incubation system” for the assay was prepared, and pre-incubated at 37° C. with a water-bathing constant temperature vibrator for 2 minutes.
(§8) (3) Control group (excluding β-NADPH): 30 μL of water and 30 μL of compound working solution (10 μM) were added to 240 μL of the mixed solution of the incubation system of step (2), and vortexed for 30 seconds to mix well. The total reaction volume was 300 μL. A duplicate sample was prepared. The sample was incubated at 37° C. with a water-bathing constant temperature vibrator. The timekeeping began and the sampling time points were set at 0 minute and 60 minutes.
(§9) (4) Sample group: 70 μL of β-NADPH solution (10 mM) and 70 μL of compound working solution (10 μM) were added to 560 μL of the mixed solution of step (2). The total reaction volume was 700 μL. The resulting mixture was vortexed for 30 seconds to mix well. A duplicate sample was prepared. The sample was incubated at 37° C. with a water-bathing constant temperature vibrator. The timekeeping began and the sampling time points were set at 0 minute, 5 minutes, 10 minutes, 20 minutes, 30 minutes, and 60 minutes after timekeeping.
(§10) (5) After vortexing for 3 minutes, the sample was centrifuged at 4000 rpm for 10 minutes.
(§11) (6) 50 μL of the supernatant was taken and 150 μL of water was added. The resulting mixture was vortexed to mix well, and analyzed by LC/MS/MS.
(§12) The half-life (t1/2) and clearance rate (Cl) were calculated using the following first-order kinetic formula:
(§13) Vd=1/protein content in liver microsome
(§14) Note: k was the slope of the logarithm of the remaining amount of the compound versus time, and Vd was the apparent distribution volume.
On the technique in general: Liver microsomes are a subcellular fraction often used to study metabolism.

The next series deals with T1, Axl (h) (Homo sapiens, UniProt P30530).
T1 construct: purchased
T1 sequence (P30530 26-894): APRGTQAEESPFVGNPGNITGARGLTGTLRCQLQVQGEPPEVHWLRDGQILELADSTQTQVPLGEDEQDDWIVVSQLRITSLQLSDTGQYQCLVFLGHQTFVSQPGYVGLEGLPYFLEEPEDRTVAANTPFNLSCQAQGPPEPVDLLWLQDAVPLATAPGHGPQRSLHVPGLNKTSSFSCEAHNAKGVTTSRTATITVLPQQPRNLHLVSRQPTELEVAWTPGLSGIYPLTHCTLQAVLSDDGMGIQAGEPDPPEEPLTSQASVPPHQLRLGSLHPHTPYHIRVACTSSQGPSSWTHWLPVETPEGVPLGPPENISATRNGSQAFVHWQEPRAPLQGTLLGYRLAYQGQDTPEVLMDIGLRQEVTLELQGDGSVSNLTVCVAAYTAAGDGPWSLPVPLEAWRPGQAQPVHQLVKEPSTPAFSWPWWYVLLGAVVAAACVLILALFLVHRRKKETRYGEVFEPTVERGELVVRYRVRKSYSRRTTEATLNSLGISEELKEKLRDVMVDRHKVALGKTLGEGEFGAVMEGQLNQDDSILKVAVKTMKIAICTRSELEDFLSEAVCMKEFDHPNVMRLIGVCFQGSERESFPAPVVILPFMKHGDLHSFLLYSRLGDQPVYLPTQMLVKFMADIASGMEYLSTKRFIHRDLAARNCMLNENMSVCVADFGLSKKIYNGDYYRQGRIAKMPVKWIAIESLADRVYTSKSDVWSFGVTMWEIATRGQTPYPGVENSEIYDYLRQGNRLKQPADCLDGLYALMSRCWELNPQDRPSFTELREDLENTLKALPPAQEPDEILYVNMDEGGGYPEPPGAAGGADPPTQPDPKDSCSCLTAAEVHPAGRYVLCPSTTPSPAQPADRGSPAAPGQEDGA
Nature of the series: Enzymatic activity test, Axl (h). The settings on record: 10 μM [γ-33P]-ATP, 40 minutes, room temperature. It is filed as biochemical. The method, then: Assay 3: Enzymatic Activity Test of the Compounds of the Present Invention
as §2
(1) Preparation of the Compound Stock Solution
The compound was dissolved in 100% DMSO to prepare a stock solution with a maximum concentration of 500 μM.
(2) Preparation of the Compound Working Solution
The compound stock solution was diluted to final concentrations of 500, 150, 50, 15, 5, 1.5, 0.5, 0.15 and 0.05 μM to become the compound working solutions (50×).
(3) Preparation of Different Enzyme Reaction Solutions
The Axl (h) enzyme was dissolved in 8 mM MOPS (pH 7.0), 0.2 mM EDTA, and 250 μM KKSRGDYMTMQIG to prepare an enzyme solution having a final concentration of 1.7 nM. The enzymatic reaction was activated by using 10 mM magnesium acetate and 10 μM [γ-^33P]-ATP to form an Mg/ATP mixed solution.
In a 384-well plate, the compound working solution was added to final concentrations of 10000, 3000, 1000, 300, 100, 30, 10, 3, and 1 nM. Then different enzyme reaction solutions prepared according to the above conditions were added. The incubation was carried out for 40 minutes at room temperature. The test was terminated by the addition of a 0.5% phosphoric acid solution. 10 μL of the reaction solution was taken and dropped to the P30 filter paper. The filter paper was washed 4 times with 0.425% phosphoric acid solution and once with methanol, and then placed on a scintillation counter. The […] IC50 values were calculated using GraphPad 5.0 software.

Series [2] can be described thus: Stability in liver microsome of dogs. The settings on record: Dog liver microsome 0.5 mg protein/mL, compound 1 μM, 37° C.; for half-life at 1 μM / microsomal CLint at 1 μM: liver microsomes. It is filed as in vitro ADME. As for the experimental part: as §1, §2, §3, §4, §5, §6, §7, §8, §9, §10, §11, §12, §13, §14

pIC50: −log10 of the molar value.

In series [1], `COc1cc2nccc(Oc3ccc(NC(=O)c4nn(C(C)C)cc(-c5ccc(F)cc5)c4=O)nc3)c2cc1OC` [Compound 15, N-(5-((6,7-dimethoxyquinolin-4-yl)oxy)pyridin-2-yl)-5-(4-fluorophenyl)-1-isopropyl-4-oxo-1,4-dihydropyridazine-3-carboxamide] showed a half-life at 1 μM of 6.42 h and a microsomal CLint at 1 μM of 3.6 µL/min/mg. In addition, the pIC50 against Axl (h) was 7.96. In series [2], this molecule gave a half-life at 1 μM of 3.73 h and a microsomal CLint at 1 μM of 6.2 µL/min/mg.
`COc1cc2nccc(Oc3cnc(NC(=O)c4nn(C(C)C)cc(-c5ccc(F)cc5)c4=O)nc3)c2cc1OC` [Compound 16, N-(5-((6,7-dimethoxyquinolin-4-yl)oxy)pyrimidine-2-yl)-5-(4-fluorophenyl)-1-isopropyl-4-oxo-1,4-dihydropyridazine-3-carboxamide]: the half-life at 1 μM in series [1] was 1.63 h; in series [2], 8.25 h. In addition, the figures for the microsomal CLint at 1 μM in series [1] and in series [2] were 14.2 µL/min/mg and 2.8 µL/min/mg, respectively. In addition, on Axl (h), the pIC50 is 7.89.
In series [1], `COc1cc2nccc(Oc3ccc(NC(=O)c4cn(C5CC5)cc(-c5ccc(F)cc5)c4=O)nc3)c2cc1OC` [Compound 30, N-(5-((6,7-dimethoxyquinolin-4-yl)oxy)pyridin-2-yl)-1-cyclopropyl-4-oxo-5-para-fluorophenyl-1,4-hydropyridin-3-carboxamide] displayed a half-life at 1 μM of 0.888 h and a microsomal CLint at 1 μM of 26 µL/min/mg. At Axl (h), this molecule had a pIC50 of 8.15. Further, in series [2], the half-life at 1 μM was determined as 0.938 h and the microsomal CLint at 1 μM is 24.6 µL/min/mg.
Turning to `COc1cc2nccc(Oc3ccc(NC(=O)c4cn(C5CC5)nc(-c5ccc(F)cc5)c4=O)cn3)c2cc1OC` [Compound 43, 2-cyclopropyl-N-(6-((6,7-dimethoxyquinolin-4-yl)oxy)pyridin-3-yl)-6-para-fluorophenyl-5-oxo-2,5-dihydropyridazine-4-carboxamide], in series [1], the half-life at 1 μM turned out to be 10.5 h and the microsomal CLint at 1 μM was found to be 2.2 µL/min/mg. Further, in series [2], the half-life at 1 μM came out at 2.4 h and the microsomal CLint at 1 μM stood at 9.6 µL/min/mg.
For the molecule `COc1cc2nccc(Oc3ccc(NC(=O)c4cn(C(C)C)cc(-c5ccc(F)cc5)c4=O)nc3)c2cc1OC` [Compound 14, N-(5-((6,7-dimethoxyquinolin-4-yl)oxy)pyridin-2-yl)-5-(4-fluorophenyl)-1-isopropyl-4-oxo-1,4-dihydropyridin-3-carboxamide], the half-life at 1 μM in series [1] worked out at 3.12 h; in series [2], 2.57 h. Further, the microsomal CLint at 1 μM in series [1] was 7.4 µL/min/mg; in series [2], 9 µL/min/mg. Moreover, the pIC50 on Axl (h) was 8.10.
For `COc1cc2nccc(Oc3cnc(NC(=O)c4cn(C5CC5)cc(-c5ccc(F)cc5)c4=O)nc3)c2cc1OC` [Compound 32, 1-cyclopropyl-N-(5-((6,7-dimethoxyquinolin-4-yl)oxy)pyrimidine-2-yl)-5-(4-fluorophenyl)-4-oxo-1,4-dihydropyridin-3-carboxamide] the same measures were 4.13 h, 3.5 h, 5.6 µL/min/mg, 6.6 µL/min/mg and 8.30.
The matching figures for `COc1cc2nccc(Oc3ncc(NC(=O)c4nn(C(C)C)cc(-c5ccc(F)cc5)c4=O)cn3)c2cc1OC` [Compound 34, N-(2-((6,7-dimethoxyquinolin-4-yl)oxy)pyrimidine-5-yl)-5-para-fluorophenyl-1-isopropyl-4-oxo-1,4-dihydropyridazine-3-carboxamide]: 4.62 h, 8.25 h, 5 µL/min/mg, 2.8 µL/min/mg and 8.30.
On to `COc1cc2nccc(Oc3cnc(NC(=O)c4cn(C5CC5)nc(-c5ccc(F)cc5)c4=O)nc3)c2cc1OC` [Compound 45, 2-cyclopropyl-N-(5-((6,7-dimethoxyquinolin-4-yl)oxy)pyrimidine-2-yl)-6-(4-fluorophenyl)-5-oxo-2,5-dihydropyridazine-4-carboxamide], for which, in series [1], the half-life at 1 μM amounted to 3.3 h and the microsomal CLint at 1 μM worked out at 7 µL/min/mg. In series [2], the half-life at 1 μM is 9.63 h and the microsomal CLint at 1 μM turned out to be 2.4 µL/min/mg.
Consider `COc1cc2nccc(Oc3ccc(NC(=O)c4cn(C(C)C)nc(-c5ccc(F)cc5)c4=O)nc3)c2cc1OC` [Compound 41, N-(5-((6,7-dimethoxyquinolin-4-yl)oxy)pyridin-2-yl)-6-(4-fluorophenyl)-2-isopropyl-5-oxo-2,5-dihydropyridazine-4-carboxamide], for which, on Axl (h), the pIC50 was 7.92.
In the case of `COc1cc2nccc(Oc3ccc(NC(=O)c4nn(C5CC5)cc(-c5ccc(C)cc5)c4=O)nc3)c2cc1OC` [Compound 46, 1-cyclopropyl-N-(5-((6,7-dimethoxyquinolin-4-yl)oxy)pyridin-2-yl)-4-oxo-5-p-tolyl-1,4-dihydropyridazine-3-carboxamide], the t1/2 entry in series [1] is given as “→∞”. In series [2], this molecule came in with a half-life at 1 μM of 0.208 h and a microsomal CLint at 1 μM of 111 µL/min/mg.
On Axl (h), `COc1cc2nccc(Oc3ccc(NC(=O)c4cn(C(C)C)nc(-c5ccc(F)cc5)c4=O)cn3)c2cc1OC` [Compound 38, N-(6-((6,7-dimethoxyquinolin-4-yl)oxy)pyridin-3-yl)-6-para-fluorophenyl-2-isopropyl-5-oxo-2,5-dihydropyridazine-4-carboxamide] gave a pIC50 of 8.52.
On to `COc1cc2nccc(Oc3ccc(NC(=O)c4cn(C5CC5)nc(-c5ccc(F)cc5)c4=O)nc3)c2cc1OC` [Compound 42, 2-cyclopropyl-N-(5--((6,7-dimethoxyquinolin-4-yl)oxy)pyridin-2-yl)-6-(4-fluorophenyl)-5-oxo-2,5-dihydropyridazine-4-carboxamide], for which the t1/2 entry in series [1] and in series [2] was “→∞” each time.

What is called half-life is the time needed for the level to fall by half in the phase considered. A low value points to rapid decline. The term microsomal CLint denotes the rate of metabolic loss divided by the concentration. A lower microsomal CLint goes with slow turnover. By pIC50 is commonly meant the negative decadic logarithm of the IC50, by convention in mol/L.
